Results published in patent publication US5912183A, “Peptide inhibitors of mitogenesis and motogenesis” (Pharmacia & Upjohn S.p.A., priority 1993, dated 1999).
Residues, ends and D or L forms follow the SMILES beside them.

Experiments:
[1] = system: N- and C-SH2 domains of p85; assay: BIAcore inhibition of binding of GST-SH2 domains to immobilized PDGF receptor phosphopeptide Y751; set-up: species or system bovine; settings: range of phosphopeptide concentrations; 25° C.; FIG. 7
Protocol: FIG. 7. Evaluation of the relative affinities of phosphotyrosine 1313, 1349 and 1356 for the N- and C- SH2 domains of p85. Affinities were determined by biospecific interaction analysis with the BIAcore instrument (Jonsson, U., Fagerstam, L., Roos, H., Ronnberg, J., Sjolander, Stenber, E., Stahlberg, R. Urbaniczky, C., Ostlin, H., and Malmquist. 1991. Surface plasmon reasonance and microfluidics for real time biospecific interaction analysis. Biotechniques 11: 520-527; Jonsson, U. and M. Malmquist. 1992. Real time biospecific analysis. The integration of surface plasmon reasonance detection, general biospecific interface chemistry and microfluidics into one analytical system p. 291-336. In F. Turner (ed), Advances in Biosensors, vol. 2 JAI Press, London; Karlsson, R., Michaelsson, A., and L. Mattsson. 1991. Kinetic analysis of monoclonal antibody-antigen interactions with a new biosensor based analytical system. J. Immunol. Meth. 145: 229-246).
Relative affinities were determined by measuring the ability of the phosphopeptides to inhibit the interaction of the SH2 domains with an immobilized phosphopeptide (DMSKDESVDY*VPMLDMK) (SEQ. ID NO: 26) which includes Y751 in the human PDGF receptor. Panel A and B show the results of these measurements, expressed as % inhibition of binding to phosphopeptide Y751.
GST-SH2 domain fusion proteins. The N- and C-SH2 domains of the bovine PI 3-kinase p85 subunit (amino acids 314-431 and 612-722) were obtained by polymerase chain reaction and cloned into the pGEX-2 bacterial expression vector (Smith, D. B., and Johnson K. S., Gene 67: 31-40 (1988).
Glutathione-S-transferase (GST)-SH2 fusion proteins were purified from bacterial lysates by glutathione affinity chromatography (Panayotou, G., et al. EMBO J., 11: 4261-4272 (1992)). Amino acid analysis on an Applied Biosystems 420A analyzer was used to determine the concentration of the recombinant proteins.
Analysis of the interaction of Y1349 and Y1356 with the p85 N- and C- SH2 domains using the BIAcore. […]

[2] = biological target: T1, binding of p85 to HGF/SF receptor (Bos taurus, UniProt P23727); assay: Competition of phosphopeptides with p85 for association with immobilized recombinant HGF/SF receptor (in vitro kinase assay readout); set-up: species or system human; settings: phosphopeptide 10 μM; p85 from Sf9 lysates; FIG. 1
T1 construct: made in house; host or cells: Sf9 insect cells (baculovirus), for both p85 and the receptor
Protocol: FIG. 1. Inhibition of binding of p85 to HGF/SF receptor by tyrosine-phosphorylated peptides. Recombinant HGF/SF receptor was purified by immunoprecipitation from baculovirus-infected Sf9 cells using a rabbit polyclonal antiserum and phosphorylated with cold ATP. Lysates of Sf9 cells expressing p85 were pre-incubated with each of the phosphopeptides (10 μM). The lysates were then allowed to associate with immobilized recombinant HGF/SF receptors. Following association the complex was washed and receptor-bound p85 was detected by an in vitro kinase assay, as described in Materials and Methods of Example 4. The phosphopeptides are identified by the number of the amino terminal tyrosine.
FIG. 2. Inhibition of binding of p85 to HGF/SF receptor with different concentrations of tyrosine-phosphorylated peptides. The phosphopeptides which efficiently out-competed p85 binding to the HGF/SF receptor (FIG. 1) were used at increasing concentrations (10 nM, 100 nM, 1 μM from left to right) to define their relative affinities for p85. Conditions of the experiment were as in FIG. 1. Phosphopeptide 1365 was used as a negative control for p85 interaction.
In vitro association experiments. Sf9 cells expressing the recombinant HGF/SF receptor (approximately 4×10^6 cells/point) were lysed 36 hours after infection in buffer A (10 mM Tris-HCl buffer pH 7.5, 10% glycerol, 1% Triton X-100, 150 mM NaCl, 5 mM EDTA), supplemented with 0.2 mM phenyl-methylsulfonyl fluoride, 1 μg/ml leupeptin, 0.1 TIU/ml aprotinin and 1 μg/ml pepstatin. Lysates were clarified at 15,000×g at 4° C. for 15 minutes and the supernatants immunoprecipitated after 2 hours incubation with anti-Met antibodies coupled to Protein A-Sepharose. Immunocomplexes were washed three times with buffer A, once with buffer B (10 mM Tris-HCl pH 7.4, 100 mM NaCl, 1 mM EDTA) and once with buffer C (25 mM 4-(2-hydroxyethyl)-1-piperazine-ethanesulfonic acid (HEPES) buffer pH 7.2, 100 mM NaCl, 5 mM MgCl2). Samples were pre-phosphorylated by incubation for 15 minutes at 25° C. in buffer C with 10 μM unlabelled ATP and then washed three times with cold buffer A supplemented with 1 mM sodium ortho-vanadate. Association between the immobilized receptor and the baculovirus-expressed p85 was carried out as previously described (Bardelli, A., et al., Oncogene 7: 1973-1978 (1992)). For the association experiments with the PI 3-kinase holoenzyme three days serum-starved A549 cells (approx. 2×10^6 cells/point) were used as a source of PI 3-kinase. A549 cells were Dounce-homogenized in MOPS buffer (20 mM 3-(N-morpholino)propanesulfonic acid) (pH 7.5), 1 mM MgCl2, 0.1 mM EDTA, 200 mM sucrose, 1 mM sodium ortho-vanadate), supplemented with 0.2 mM phenylmethylsulfonyl fluoride, 1 μg/ml leupeptin, 0.1 TIU/ml aprotinin and 1 μg/ml pepstatin. Homogenates were centrifuged at 100,000×g for 20 minutes at 4° C. When checking for the ability of phosphopeptides to block the association with the receptor, cell lysates were pre-incubated with the phosphopeptides for 1 hour at 4° C. prior to incubation with the immobilized recombinant HGF/SF receptor. Following association, immunocomplexes were washed three times with buffer A, twice with buffer D (0.5M LiCl, 100 mM Tris-HCl pH 7.6), and twice with buffer B.
The presence of the p85 subunit of the PI 3-kinase in the receptor immunoprecipitate was determined by: i) labelling of the receptor and associated proteins with [γ-^32 P]ATP by in vitro kinase assay; ii) Western immunoblotting; iii) PI 3-kinase activity assay.
In vitro kinase assay. Receptor-associated proteins were labelled in 20 μl of buffer C, in the presence of 10 μCi [γ-^32 P]ATP (specific activity 7,000 Ci/Mm; Amersham) at 25° C. for 15 minutes. The reaction was stopped by adding 1 ml of ice-cold Buffer A without protease inhibitors. Samples were washed three times with cold buffer A. The labelled immunocomplexes were eluted from Protein A-Sepharose in boiling Laemmli buffer. […]

T1 sequence (P23727 whole entry): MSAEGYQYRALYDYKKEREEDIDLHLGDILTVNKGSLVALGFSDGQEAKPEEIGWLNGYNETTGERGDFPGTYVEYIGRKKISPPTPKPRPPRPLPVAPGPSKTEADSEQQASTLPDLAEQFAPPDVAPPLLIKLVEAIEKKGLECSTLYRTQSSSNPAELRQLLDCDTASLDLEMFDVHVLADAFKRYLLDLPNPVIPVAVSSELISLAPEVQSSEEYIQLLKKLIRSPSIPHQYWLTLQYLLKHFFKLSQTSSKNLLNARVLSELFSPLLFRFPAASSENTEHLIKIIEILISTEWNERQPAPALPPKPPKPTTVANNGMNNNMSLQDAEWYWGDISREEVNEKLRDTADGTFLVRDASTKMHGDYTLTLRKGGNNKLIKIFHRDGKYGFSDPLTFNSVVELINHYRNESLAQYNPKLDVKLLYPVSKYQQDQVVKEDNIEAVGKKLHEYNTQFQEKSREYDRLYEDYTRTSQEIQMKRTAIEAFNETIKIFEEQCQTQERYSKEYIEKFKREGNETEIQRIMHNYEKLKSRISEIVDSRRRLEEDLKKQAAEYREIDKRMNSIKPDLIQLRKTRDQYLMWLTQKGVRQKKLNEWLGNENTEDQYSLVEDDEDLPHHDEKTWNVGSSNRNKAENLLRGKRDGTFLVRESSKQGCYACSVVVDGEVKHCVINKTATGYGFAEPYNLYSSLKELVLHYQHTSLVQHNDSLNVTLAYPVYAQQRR

Row | Compound | Apparent relative affinity: inhibition of binding of p85 N- and C-SH2 domains to phosphopeptide Y751 [1] | Inhibition of binding of p85 to HGF/SF receptor [2]
1 | CC(C)[C@H](NC(=O)[C@H](CS)NC(=O)[C@H](CCCCN)NC(=O)[C@@H](NC(=O)[C@H](CC(N)=O)NC(=O)[C@@H](NC(=O)[C@@H](N)Cc1ccc(OP(=O)(O)O)cc1)C(C)C)C(C)C)C(=O)N[C@@H](C)C(=O)O [H-Tyr*-Val-Asn-Val-Lys-Cys-Val-Ala-OH] (HELM PEPTIDE1{[N[C@@H](Cc1ccc(OP(=O)(O)O)cc1)C(=O)[*:2]].V.N.V.K.C.V.A}$$$$V2.0) | inhibit binding of p85 N- and C-SH2 domains to phosphopeptide Y751, but at higher concentrations | efficiently outcompeted p85
2 | CC(C)[C@H](NC(=O)[C@H](Cc1c[nH]cn1)NC(=O)[C@@H](NC(=O)[C@@H](N)Cc1ccc(OP(=O)(O)O)cc1)C(C)C)C(=O)N[C@@H](CC(N)=O)C(=O)N[C@@H](C)C(=O)N[C@H](C(=O)N[C@@H](Cc1ccc(O)cc1)C(=O)O)[C@@H](C)O [H-Tyr*-Val-His-Val-Asn-Ala-Thr-Tyr-OH] (HELM PEPTIDE1{[N[C@@H](Cc1ccc(OP(=O)(O)O)cc1)C(=O)[*:2]].V.H.V.N.A.T.Y}$$$$V2.0) | inhibit binding of p85 N- and C-SH2 domains to phosphopeptide Y751, but at higher concentrations | efficiently outcompeted p85
